Measured values reported in PubChem BioAssay AID1259407 (Chemical Carcinogenesis Research Information System (CCRIS), 2018).
Calls of active or inactive are those of the source. How the calls were made is not given here.

Tested on: CCRIS mutagenicity, Ames/micronucleus/aberration tests
Assay: CCRIS mutagenicity studies
[1] = Test System: AMES SALMONELLA TYPHIMURIUM, Strain/Indicator: TA98, Metabolic Activation: NONE, Method: PREINCUBATION
[2] = Test System: AMES SALMONELLA TYPHIMURIUM, Strain/Indicator: TA100, Metabolic Activation: NONE, Method: PREINCUBATION
[3] = Test System: AMES SALMONELLA TYPHIMURIUM, Strain/Indicator: TA100, Metabolic Activation: NONE, Method: STANDARD PLATE
[4] = Test System: AMES SALMONELLA TYPHIMURIUM, Strain/Indicator: TA1535, Metabolic Activation: NONE, Method: PREINCUBATION
[5] = Test System: AMES SALMONELLA TYPHIMURIUM, Strain/Indicator: TA1537, Metabolic Activation: NONE, Method: PREINCUBATION

OCC1CO1 (stereo not given)
mutagenic call (End Point: IN VITRO CHROMOSOMAL ABERRATIONS, Test System: CHL CELLS, Metabolic Activation: NONE): active; positive (structural changes)
mutagenic call (End Point: IN VITRO CHROMOSOMAL ABERRATIONS, Test System: CHL CELLS, Metabolic Activation: RAT, LIVER, S-9, SODIUM PHENOBARBITAL AND 5,6-BENZOFLAVONE): active; positive (structural changes)
mutagenic call (Test System: AMES SALMONELLA TYPHIMURIUM, Strain/Indicator: TA97, Metabolic Activation: HAMSTER, LIVER, S-9, AROCLOR 1254, Method: PREINCUBATION): active; positive
mutagenic call (Test System: AMES SALMONELLA TYPHIMURIUM, Strain/Indicator: TA97, Metabolic Activation: NONE, Method: PREINCUBATION): active; positive
mutagenic call (Test System: AMES SALMONELLA TYPHIMURIUM, Strain/Indicator: TA97, Metabolic Activation: RAT, LIVER, S-9, AROCLOR 1254, Method: PREINCUBATION): active; positive
mutagenic call (Test System: AMES SALMONELLA TYPHIMURIUM, Strain/Indicator: TA98, Metabolic Activation: HAMSTER, LIVER, S-9, AROCLOR 1254, Method: PREINCUBATION): active; positive
mutagenic call [1]: active; positive
mutagenic call (Test System: AMES SALMONELLA TYPHIMURIUM, Strain/Indicator: TA98, Metabolic Activation: RAT, LIVER, S-9, AROCLOR 1254, Method: PREINCUBATION): active; positive
mutagenic call (Test System: AMES SALMONELLA TYPHIMURIUM, Strain/Indicator: TA100, Metabolic Activation: HAMSTER, LIVER, S-9, AROCLOR 1254, Method: PREINCUBATION): active; positive
mutagenic call [2]: active; positive
mutagenic call [3]: active; positive
mutagenic call (Test System: AMES SALMONELLA TYPHIMURIUM, Strain/Indicator: TA100, Metabolic Activation: RAT, LIVER, S-9, AROCLOR 1254, Method: PREINCUBATION): active; positive
mutagenic call (Test System: AMES SALMONELLA TYPHIMURIUM, Strain/Indicator: TA100, Metabolic Activation: RAT, LIVER, S-9, AROCLOR 1254, Method: STANDARD PLATE): active; positive
mutagenic call (Test System: AMES SALMONELLA TYPHIMURIUM, Strain/Indicator: TA100, Metabolic Activation: RAT, LIVER, S-9, PCB, Method: PREINCUBATION): active; positive
mutagenic call (Test System: AMES SALMONELLA TYPHIMURIUM, Strain/Indicator: TA1535, Metabolic Activation: HAMSTER, LIVER, S-9, AROCLOR 1254, Method: PREINCUBATION): active; positive
mutagenic call [4]: active; positive
mutagenic call (Test System: AMES SALMONELLA TYPHIMURIUM, Strain/Indicator: TA1535, Metabolic Activation: NONE, Method: STANDARD PLATE): active; positive
mutagenic call (Test System: AMES SALMONELLA TYPHIMURIUM, Strain/Indicator: TA1535, Metabolic Activation: RAT, LIVER, S-9, AROCLOR 1254, Method: PREINCUBATION): active; positive
mutagenic call (Test System: AMES SALMONELLA TYPHIMURIUM, Strain/Indicator: TA1537, Metabolic Activation: HAMSTER, LIVER, S-9, AROCLOR 1254, Method: PREINCUBATION): active; positive
mutagenic call [5]: active; positive
mutagenic call (Test System: AMES SALMONELLA TYPHIMURIUM, Strain/Indicator: TA1537, Metabolic Activation: RAT, LIVER, S-9, AROCLOR 1254, Method: PREINCUBATION): active; positive
mutagenic call (Test System: Ames Salmonella typhimurium, Strain/Indicator: TA98, Metabolic Activation: None, Method: Preincubation): active; positive
mutagenic call (Test System: Ames Salmonella typhimurium, Strain/Indicator: TA98, Metabolic Activation: Rat, Liver, S9, Sodium phenobarbital and 5,6-benzoflavone (10%), Method: Preincubation): active; positive
mutagenic call (Test System: Ames Salmonella typhimurium, Strain/Indicator: TA100, Metabolic Activation: None, Method: Preincubation): active; positive
mutagenic call (Test System: Ames Salmonella typhimurium, Strain/Indicator: TA100, Metabolic Activation: Rat, Liver, S9, Sodium phenobarbital and 5,6-benzoflavone (10%), Method: Preincubation): active; positive
mutagenic call (Test System: Ames Salmonella typhimurium, Strain/Indicator: TA1535, Metabolic Activation: None, Method: Preincubation): active; positive
mutagenic call (Test System: Ames Salmonella typhimurium, Strain/Indicator: TA1535, Metabolic Activation: Rat, Liver, S9, Sodium phenobarbital and 5,6-benzoflavone (10%), Method: Preincubation): active; positive
mutagenic call (Test System: Ames Salmonella typhimurium, Strain/Indicator: TA1537, Metabolic Activation: None, Method: Preincubation): active; positive
mutagenic call (Test System: Ames Salmonella typhimurium, Strain/Indicator: TA1537, Metabolic Activation: Rat, Liver, S9, Sodium phenobarbital and 5,6-benzoflavone (10%), Method: Preincubation): inactive; negative
mutagenic call (Test System: CHINESE HAMSTER V-79, Strain/Indicator: V-79/6-THIOGUANINE, Metabolic Activation: NONE): active; positive
mutagenic call (Test System: E. coli, Strain/Indicator: WP2uvrA/pKM101, Metabolic Activation: None, Method: Preincubation): active; positive
mutagenic call (Test System: E. coli, Strain/Indicator: WP2uvrA/pKM101, Metabolic Activation: Rat, Liver, S9, Sodium phenobarbital and 5,6-benzoflavone (10%), Method: Preincubation): active; positive
mutagenic call (Test System: MOUSE LYMPHOMA, Strain/Indicator: L5178Y (TK+/TK-), Metabolic Activation: NONE, Method: SUSPENSION/PLATE): active; positive

CCCCCN(CCCCC)CCCCC
mutagenic call (Test System: AMES SALMONELLA TYPHIMURIUM, Strain/Indicator: TA98, Metabolic Activation: HAMSTER, LIVER, S-9, AROCLOR 1254 (10%), Method: PREINCUBATION): inactive; negative
mutagenic call [1]: inactive; negative
mutagenic call (Test System: AMES SALMONELLA TYPHIMURIUM, Strain/Indicator: TA98, Metabolic Activation: RAT, LIVER, S-9, AROCLOR 1254 (10%), Method: PREINCUBATION): inactive; negative
mutagenic call (Test System: AMES SALMONELLA TYPHIMURIUM, Strain/Indicator: TA100, Metabolic Activation: HAMSTER, LIVER, S-9, AROCLOR 1254 (10%), Method: PREINCUBATION): inactive; negative
mutagenic call [2]: inactive; negative
mutagenic call (Test System: AMES SALMONELLA TYPHIMURIUM, Strain/Indicator: TA100, Metabolic Activation: RAT, LIVER, S-9, AROCLOR 1254 (10%), Method: PREINCUBATION): inactive; negative
mutagenic call (Test System: AMES SALMONELLA TYPHIMURIUM, Strain/Indicator: TA1535, Metabolic Activation: HAMSTER, LIVER, S-9, AROCLOR 1254 (10%), Method: PREINCUBATION): inactive; negative
mutagenic call [4]: inactive; negative
mutagenic call (Test System: AMES SALMONELLA TYPHIMURIUM, Strain/Indicator: TA1535, Metabolic Activation: RAT, LIVER, S-9, AROCLOR 1254 (10%), Method: PREINCUBATION): inactive; negative
mutagenic call (Test System: AMES SALMONELLA TYPHIMURIUM, Strain/Indicator: TA1537, Metabolic Activation: HAMSTER, LIVER, S-9, AROCLOR 1254 (10%), Method: PREINCUBATION): inactive; negative
mutagenic call [5]: inactive; negative
mutagenic call (Test System: AMES SALMONELLA TYPHIMURIUM, Strain/Indicator: TA1537, Metabolic Activation: RAT, LIVER, S-9, AROCLOR 1254 (10%), Method: PREINCUBATION): inactive; negative

Nc1ccc(-c2ccc(N)c(Br)c2)cc1Br
mutagenic call (Test System: AMES SALMONELLA TYPHIMURIUM, Strain/Indicator: TA98(1,8-DNP6), Metabolic Activation: NONE, Method: STANDARD PLATE): active; positive
mutagenic call (Test System: AMES SALMONELLA TYPHIMURIUM, Strain/Indicator: TA98(1,8-DNP6), Metabolic Activation: S-9, Method: STANDARD PLATE): active; positive
mutagenic call (Test System: AMES SALMONELLA TYPHIMURIUM, Strain/Indicator: TA98/1,8-DNP6, Metabolic Activation: HAMSTER, LIVER, S-9, Method: PREINCUBATION): active; positive
mutagenic call (Test System: AMES SALMONELLA TYPHIMURIUM, Strain/Indicator: TA98/1,8-DNP6, Metabolic Activation: NONE, Method: PREINCUBATION): active; positive
mutagenic call (Test System: AMES SALMONELLA TYPHIMURIUM, Strain/Indicator: TA98, Metabolic Activation: HAMSTER, LIVER, S-9, Method: PREINCUBATION): active; positive
mutagenic call [1]: active; positive
mutagenic call (Test System: AMES SALMONELLA TYPHIMURIUM, Strain/Indicator: TA98, Metabolic Activation: NONE, Method: STANDARD PLATE): active; positive
mutagenic call (Test System: AMES SALMONELLA TYPHIMURIUM, Strain/Indicator: TA98, Metabolic Activation: S-9, Method: STANDARD PLATE): active; positive
mutagenic call [3]: inactive; negative
mutagenic call (Test System: AMES SALMONELLA TYPHIMURIUM, Strain/Indicator: TA100, Metabolic Activation: S-9, Method: STANDARD PLATE): active; positive
